Test results reported in patent US20220259593A1, “CONTROL OF MAMMALIAN GENE DOSAGE USING CRISPR” (The Regents of the University of California, priority 2019, published 2022).

System: K562 CRISPRi cells
Assay: Perturb-seq pooled growth measurement (sgRNA counts, growth phenotype γ, relative activity)
Type: cell-based, human
Settings: sequencing read counts; for Perturb-seq pooled growth sgRNA counts, d5: 5 days of growth (day seven after transduction); for Perturb-seq pooled growth sgRNA counts, d10: 10 days of growth (day twelve after transduction); for Perturb-seq pooled growth sgRNA counts, T0: T0 = day two after transduction
Text: Finally, we sought to use intermediate-activity sgRNAs to explore relationships between expression levels of various genes and the resulting cellular phenotypes. To simultaneously measure gene expression levels and obtain rich phenotypes for a variety of sgRNA series, we used Perturb-seq, an experimental strategy that enables matched capture of the transcriptome and the identity of an expressed sgRNA for each individual cell in pools of cells (27, 31-33) (FIG. 12A). […] In addition to the single-cell transcriptomes, we measured bulk growth phenotypes conferred by sgRNAs in these cells.
To measure the growth rate defects conferred by each sgRNA for comparison with the transcriptional phenotypes, samples of 500,000 transduced cells were taken from the same transduced cell population used in the Perturb-seq experiment on days two, seven, and twelve after transduction. Genomic DNA was extracted using the Nucleospin Blood kit (Macherey-Nagel) and sgRNA amplicons were prepared as described previously and above (19), albeit with no genomic DNA digestion or gel purification, and sequenced on HiSeq 4000 as described above for the other screens. Growth phenotypes were calculated by comparing normalized sgRNA abundances at day seven and twelve to those at day two, as described above. […] Relative sgRNA activities measured at day seven (five days of growth) were used to assign sgRNA activities in further analysis.

Substance | Perturb-seq pooled growth sgRNA counts, d5 | Perturb-seq pooled growth sgRNA counts, d10 | Perturb-seq pooled growth sgRNA counts, T0
DBR1_+_137893744.23-P1P2_07: sgRNA targeting DBR1, GTTTGCAGGGGTCTACACCC, SEQ ID NO: 80 (listed as DNA, chemistry not fully specified) | 4894 | 2550 | 8500
DBR1_+_137893744.23-P1P2_08: sgRNA targeting DBR1, GTTTGCAGTAGTCTACACCC, SEQ ID NO: 82 (listed as DNA, chemistry not fully specified) | 11651 | 15989 | 5326
DUT_+_48624411.23-P1P2_00: sgRNA targeting DUT, GCGAGCGAGGAGACCACCGG, SEQ ID NO: 110 (listed as DNA, chemistry not fully specified) | 3755 | 1570 | 14025
DUT_+_48624411.23-P1P2_01: sgRNA targeting DUT, GCCAGCGAGGAGACCACCGG, SEQ ID NO: 111 (listed as DNA, chemistry not fully specified) | 6764 | 3576 | 25227
DUT_+_48624411.23-P1P2_07: sgRNA targeting DUT, GCGAGCGAGGAGCCCACCGG, SEQ ID NO: 113 (listed as DNA, chemistry not fully specified) | 1509 | 1157 | 4601
DUT_+_48624411.23-P1P2_08: sgRNA targeting DUT, GCGAGCGAGGAGGCCACCGG, SEQ ID NO: 112 (listed as DNA, chemistry not fully specified) | 4351 | 2392 | 15356
DUT_+_48624411.23-P1P2_10: sgRNA targeting DUT, GCGAGCGAGGAGACCAACGG, SEQ ID NO: 114 (listed as DNA, chemistry not fully specified) | 5403 | 4466 | 6538
EIF2S1_−_67827080.23-P1P2_00: sgRNA targeting EIF2S1, GAGCGAAGCGCACGCTGAGG, SEQ ID NO: 136 (listed as DNA, chemistry not fully specified) | 1123 | 1318 | 5718
EIF2S1_−_67827080.23-P1P2_01: sgRNA targeting EIF2S1, GAGCGAAACGCACGCTGAGG, SEQ ID NO: 139 (listed as DNA, chemistry not fully specified) | 3799 | 4065 | 5433
EIF2S1_−_67827080.23-P1P2_02: sgRNA targeting EIF2S1, GAGCGCAGCGCACGCTGAGG, SEQ ID NO: 138 (listed as DNA, chemistry not fully specified) | 2570 | 2582 | 8035
EIF2S1_−_67827080.23-P1P2_06: sgRNA targeting EIF2S1, GAGCGAAGCGCGCGCTGAGG, SEQ ID NO: 137 (listed as DNA, chemistry not fully specified) | 1718 | 2436 | 4549
EIF2S1_−_67827080.23-P1P2_07: sgRNA targeting EIF2S1, GAGCGAAGCGCTCGCTGAGG, SEQ ID NO: 140 (listed as DNA, chemistry not fully specified) | 13281 | 22309 | 6931
GATA1_−_48645022.23-P1P2_00: sgRNA targeting GATA1, GTGAGCTTGCCACATCCCCA, SEQ ID NO: 119 (listed as DNA, chemistry not fully specified) | 955 | 757 | 5712
GATA1_−_48645022.23-P1P2_03: sgRNA targeting GATA1, GTGCGCTTGCCACATCCCCA, SEQ ID NO: 120 (listed as DNA, chemistry not fully specified) | 1927 | 1534 | 12276
GATA1_−_48645022.23-P1P2_04: sgRNA targeting GATA1, GTGAGCTTACCACATCCCCA, SEQ ID NO: 121 (listed as DNA, chemistry not fully specified) | 860 | 668 | 4714
GATA1_−_48645022.23-P1P2_06: sgRNA targeting GATA1, GTGAGCTTGCGACATCCCCA, SEQ ID NO: 123 (listed as DNA, chemistry not fully specified) | 5580 | 5489 | 9440
GATA1_−_48645022.23-P1P2_08: sgRNA targeting GATA1, GTGAGCTTTCCACATCCCCA, SEQ ID NO: 122 (listed as DNA, chemistry not fully specified) | 2043 | 1873 | 7028
GATA1_−_48645022.23-P1P2_12: sgRNA targeting GATA1, GTGAGCTTGCCACATCCGCA, SEQ ID NO: 124 (listed as DNA, chemistry not fully specified) | 7289 | 11548 | 4081
GINS1_−_25388381.23-P1P2_00: sgRNA targeting GINS1, GGACTAGAACGAAAGGAGTG, SEQ ID NO: 93 (listed as DNA, chemistry not fully specified) | 547 | 280 | 3621
GINS1_−_25388381.23-P1P2_03: sgRNA targeting GINS1, GGACTATAACGAAAGGAGTG, SEQ ID NO: 96 (listed as DNA, chemistry not fully specified) | 2982 | 2755 | 9799
GINS1_−_25388381.23-P1P2_06: sgRNA targeting GINS1, GGACTAGAACGGAAGGAGTG, SEQ ID NO: 95 (listed as DNA, chemistry not fully specified) | 1828 | 1219 | 11452
GINS1_−_25388381.23-P1P2_08: sgRNA targeting GINS1, GGACTAGAGCGAAAGGAGTG, SEQ ID NO: 94 (listed as DNA, chemistry not fully specified) | 2461 | 1756 | 18173
GINS1_−_25388381.23-P1P2_14: sgRNA targeting GINS1, GGACTAGAACGAAAGGAGCG, SEQ ID NO: 97 (listed as DNA, chemistry not fully specified) | 5833 | 6093 | 6443
GNB2L1_+_180670873.23-P1P2_00: sgRNA targeting GNB2L1, GTGCAAGGCGGCGGCAGGAG, SEQ ID NO: 55 (listed as DNA, chemistry not fully specified) | 2456 | 1685 | 2280
GNB2L1_+_180670873.23-P1P2_02: sgRNA targeting GNB2L1, GTGCAAGACGGCGGCAGGAG, SEQ ID NO: 59 (listed as DNA, chemistry not fully specified) | 6216 | 7618 | 3839
GNB2L1_+_180670873.23-P1P2_07: sgRNA targeting GNB2L1, GTGCAAGGCGGGGGCAGGAG, SEQ ID NO: 58 (listed as DNA, chemistry not fully specified) | 8322 | 8738 | 9894
GNB2L1_+_180670873.23-P1P2_08: sgRNA targeting GNB2L1, GTGCAAGGTGGCGGCAGGAG, SEQ ID NO: 56 (listed as DNA, chemistry not fully specified) | 25247 | 17083 | 24451
GNB2L1_+_180670873.23-P1P2_13: sgRNA targeting GNB2L1, GTGCAAGGCGGCGGCGGGAG, SEQ ID NO: 57 (listed as DNA, chemistry not fully specified) | 6350 | 5991 | 4708
